Laboratory results taken from ChEMBL document CHEMBL1140520, “Synthesis and biological evaluation of substituted 6-alkynyl-4-anilinoquinazoline derivatives as potent EGFR inhibitors” (Bioorg Med Chem Lett, 2007).

What follows are molecules tested against Epidermal growth factor receptor (Homo sapiens, UniProt P00533).
Chain of Epidermal growth factor receptor (P00533 whole entry): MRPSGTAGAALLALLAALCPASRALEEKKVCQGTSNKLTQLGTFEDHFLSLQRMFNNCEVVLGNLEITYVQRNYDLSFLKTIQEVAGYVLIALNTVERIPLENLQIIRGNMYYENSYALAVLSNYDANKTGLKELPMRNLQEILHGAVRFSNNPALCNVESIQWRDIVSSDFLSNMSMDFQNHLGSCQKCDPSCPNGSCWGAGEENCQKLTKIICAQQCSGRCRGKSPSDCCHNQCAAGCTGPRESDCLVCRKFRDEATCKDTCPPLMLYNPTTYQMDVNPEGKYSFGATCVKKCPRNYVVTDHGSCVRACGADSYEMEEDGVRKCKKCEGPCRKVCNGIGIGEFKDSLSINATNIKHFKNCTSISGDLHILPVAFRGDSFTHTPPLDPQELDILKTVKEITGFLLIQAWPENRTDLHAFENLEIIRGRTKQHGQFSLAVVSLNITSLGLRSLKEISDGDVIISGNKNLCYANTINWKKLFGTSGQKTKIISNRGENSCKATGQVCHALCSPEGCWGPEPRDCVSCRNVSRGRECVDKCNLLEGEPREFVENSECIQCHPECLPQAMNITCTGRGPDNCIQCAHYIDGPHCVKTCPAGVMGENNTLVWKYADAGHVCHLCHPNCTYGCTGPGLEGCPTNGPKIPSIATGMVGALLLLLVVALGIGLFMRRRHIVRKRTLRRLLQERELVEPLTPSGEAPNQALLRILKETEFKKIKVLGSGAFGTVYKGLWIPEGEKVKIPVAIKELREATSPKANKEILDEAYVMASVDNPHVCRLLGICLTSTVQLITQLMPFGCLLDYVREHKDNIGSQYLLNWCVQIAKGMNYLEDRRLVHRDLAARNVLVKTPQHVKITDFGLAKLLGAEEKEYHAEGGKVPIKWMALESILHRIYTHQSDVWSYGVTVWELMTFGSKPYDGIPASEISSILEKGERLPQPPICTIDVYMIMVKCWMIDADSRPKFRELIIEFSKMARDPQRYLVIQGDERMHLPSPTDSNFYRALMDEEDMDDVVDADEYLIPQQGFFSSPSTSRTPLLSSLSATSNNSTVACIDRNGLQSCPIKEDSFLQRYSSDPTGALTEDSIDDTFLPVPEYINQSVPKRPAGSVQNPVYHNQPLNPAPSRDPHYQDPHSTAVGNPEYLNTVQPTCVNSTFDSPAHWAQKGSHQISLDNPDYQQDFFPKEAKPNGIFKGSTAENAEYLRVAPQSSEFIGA

Compound | IC50 [nM]
OCC#Cc1ccc2ncnc(Nc3ccc(F)c(Cl)c3)c2c1 | 14.1
COc1cc2ncnc(Nc3cccc(C#CCCO)c3)c2cc1OC | 402
C#Cc1cccc(Nc2ncnc3cc(OC)c(OC)cc23)c1 | 28.8
Fc1ccc(Nc2ncnc3ccc(C#CCN4CCCCC4)cc23)cc1Cl | 88.7
COc1cc2ncnc(Nc3cccc(C#CCCCO)c3)c2cc1OC | 1360
COc1cc2ncnc(Nc3cccc(C#Cc4ccccc4)c3)c2cc1OC | 921
Fc1ccc(Nc2ncnc3ccc(C#CCN4CCOCC4)cc23)cc1Cl | 50.3
C#Cc1ccc2ncnc(Nc3ccc(F)c(Cl)c3)c2c1 | 127
OCCC#Cc1ccc2ncnc(Nc3ccc(F)c(Cl)c3)c2c1 | 186
CC(C)(O)C#Cc1ccc2ncnc(Nc3ccc(F)c(Cl)c3)c2c1 | 152
Fc1ccc(Nc2ncnc3ccc(C#Cc4ccccc4)cc23)cc1Cl | 331
OCCCC#Cc1ccc2ncnc(Nc3ccc(F)c(Cl)c3)c2c1 | 114
COc1cc2ncnc(Nc3cccc(C#CCO)c3)c2cc1OC | 1640
COc1cc2ncnc(Nc3cccc(C#CC(C)(C)O)c3)c2cc1OC | 206
